Measured values: ChEMBL document CHEMBL6074695, “Structural Aspects of Mycobacterium tuberculosis DNA Gyrase Targeted by Novel Bacterial Topoisomerase Inhibitors” (ACS Med Chem Lett, 2024)
Values after ≈ are worked out from the molar mass of the structure shown.

System: Mycobacterium tuberculosis
Format: functional, organism-based
Conditions: H37Rv, 120 h

Structure (SMILES) | IC50 [nM] | MIC (time 5 day) [µM]
COc1ccc2nccc(CCN3CCC(NCc4cc(F)c(Cl)c(F)c4)CC3)c2n1 | 7 | 
O=c1ccc2ncc(=O)n3c2n1C[C@H]3CN1CCC(NCc2cc3c(cn2)OCCC3)CC1 [GEPOTIDACIN] |  | 0.86 (≈ 0.386 µg/mL)
